Data from article PMC10119279 (Scientific Reports, 2023).
Values joined by “and” are separate entries in the source; they are usually repeats but may differ in a detail not shown here. Identical values can stand only once. Like-named read-outs stand apart in the source and are kept apart here.

Legend:
[1] = system: human peptide transporter 2 (PEPT2); set-up: method as in PMID 20067523; details: ref 23; cited from earlier work
CN1 enzyme = molecular target: T1, CN1 enzyme (Homo sapiens, UniProt Q96KN2); assay: In vitro degradation of carnosine, anserine and balenine added to human heparin plasma; type: in vitro ADME; details: for half-life at 20 µM: human, heparin plasma
T1 construct: Fasted venous heparin plasma was collected from 6 subjects (5 males and 1 female) with a wide range in CN1 enzyme activity; from tissue; host or cells: human venous heparin plasma from 6 volunteers
T1 sequence (Q96KN2 26-507): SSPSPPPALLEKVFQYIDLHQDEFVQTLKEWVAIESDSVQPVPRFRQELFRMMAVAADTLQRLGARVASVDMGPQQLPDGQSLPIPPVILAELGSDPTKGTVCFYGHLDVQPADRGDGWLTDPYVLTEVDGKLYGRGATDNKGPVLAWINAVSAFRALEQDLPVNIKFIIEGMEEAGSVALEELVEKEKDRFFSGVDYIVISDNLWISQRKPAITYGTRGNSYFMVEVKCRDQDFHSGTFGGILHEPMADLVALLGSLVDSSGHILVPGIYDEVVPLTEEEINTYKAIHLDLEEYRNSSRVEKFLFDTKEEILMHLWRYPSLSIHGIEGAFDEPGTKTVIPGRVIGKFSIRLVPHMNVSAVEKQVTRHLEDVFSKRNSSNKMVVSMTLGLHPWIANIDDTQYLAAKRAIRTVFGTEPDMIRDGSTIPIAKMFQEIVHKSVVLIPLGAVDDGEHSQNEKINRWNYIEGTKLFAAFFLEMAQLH
Method: Fasted venous heparin plasma was collected from 6 subjects (5 males and 1 female) with a wide range in CN1 enzyme activity (0.32–2.92 µmol/mL/h with a mean value of 1.62 µmol/mL/h). Subjects were asked to refrain from alcohol, meat and fish the day before the sampling. […] On different time points (Table 1), plasma was deproteinized with 1:11 sulfosalicylic acid (SSA, 35% solution) to inhibit further hydrolysis. Samples were centrifuged for 5 min at 16,000 g and supernatant was stored at − 20 °C until further UHPLC-MS/MS analysis.
(§1) Extraction of plasma and urine for UHPLC-MS/MS analysis went as follows: 150 µL of deproteinized plasma/urine (not deproteinized) was added to 215 µL of acetonitrile containing 1% formic acid, 10 µL of internal standard (IS) (carnosine-D4) and 25 µL ultrapure water or standard (calibration curve and quality control samples (QC)). Then samples were vortexed and centrifuged (15 min, 4 °C, 15,000 g). Supernatant was used for further analyses.
(§2) In the in vitro study, supernatant was diluted 40 times before injection. In the PK study, plasma samples from the 10 mg/kg condition and baseline urine samples were diluted 100 times. All other urine samples were diluted 1000 times. Dilutions were conducted with acetonitrile containing 1% formic acid.
(§3) Analyses were performed on a UHPLC-MS/MS platform consisting of an Acquity H-Class Quaternary Solvent Manager and Flow-Through-Needle Sample Manager with temperature controlled tray (8 °C) and column oven (60 °C). Chromatographic separation was achieved on an Acquity UPLC BEH amide column (2.1 mm × 100 mm, 1.7 µm) with an Acquity amide Vanguard pre-column. The system operated at a flow rate of 0.3 mL/min with solvent A (ultrapure water), solvent B (acetonitrile) and solvent C (200 mM ammonium formate with 0.04% ammonia) with the gradient shown in Table 2. The UPLC column effluent was interfaced to a Xevo TQ-XS® MS/MS system (plasma samples) and Xevo TQ-S® (urine samples), equipped with an electrospray ionization (ESI) probe operating in positive ion mode. Further MS settings included desolvation gas flow rate (15 L/h), desolvation temperature (600 °C), cone gas flow rate (800 L/h), source temperature (150 °C) and capillary voltage (0.75 kV). Transition details are depicted in Table 3. […] The detector operated in multiple reacting monitoring mode, scanning the two most intense transitions of the HCDs. Masslynx software 4.2 was used for instrument control and data extraction. Hardware and software were purchased from Waters (Milford, MA, USA).
CN1 activity was quantified by fluorometric determination of histidine following carnosine addition (based on Teufel et al., 2003). The reaction was initiated by adding carnosine to the serum (final concentration of 3.33 mM carnosine) and stopped after 10 min incubation at 37 °C by adding trichloroacetic acid (final concentration of 150 mM TCA). For controls, trichloroacetic acid was added before carnosine. After centrifugation (15 min, 16000 g), 10 µl supernatant was added to 190 µl of an OPA-NaOH mixture (4000 µl incomplete ophtaldehyde, with 0.2% 2-mercaptoethanol, and 15 ml of 4 M sodium hydroxide solution) and fluorescence was determined after 40 min (excitation: 360 nm and emission: 465 nm). All chemicals were purchased from Sigma-Aldrich (Milan, Italy).
HCD concentration in the in vitro experiment was calculated relative to the starting concentration. Elimination constant (ke) and elimination half-life were calculated based on a monophasic decay profile. Incremental area under the plasma concentration time curve (iAUC) was calculated using the trapezoidal method in the PK study. A normality check was performed using Shapiro-Wilk’s test. In case of normally distributed data, a mixed-effects model and Pearson correlation was used. Skewed data were analysed with Friedman tests and Spearman rank correlations. Values are presented as mean/median ± standard deviation/inter quartile range and 95% confidence intervals (95% CI). […]

[2] = cited from earlier work
[3] = system: serum carnosinase (CN1) enzyme; details: cited from earlier work; for Substrate quality for the CN1 enzyme: ref 15-17; for Hydrolysis rate as % of carnosine's: several in vitro experiments
clinical = details: both, human, plasma and urine, oral
Method: Plasma concentrations were described using a 1-compartmental model, with sequential zero- and first-order absorption and linear elimination. Cumulative urine concentrations were fitted simultaneously with plasma concentrations. Inter-occasion variability was also implemented and assumed to follow a lognormal distribution. Residual variability was described using a combined error model, consisting of an additive and a proportional component. The following covariates were tested: sex, age, weight, CN1 activity and dose. Model evaluation was done based on standard goodness-of-fit metrics (objective function value, standard errors) and plots.

Sprague Dawley rats = system: Sprague Dawley rats
Method: Following treatment, a 2 week observation period with twice daily examination for morbidity and mortality was performed.

[4] = In vivo pharmacokinetic experiment: plasma and urine balenine after acute oral ingestion; set-up: species or system human; details: for Urinary balenine excretion: urine up to 24 h; for Cmax: read-out: Cmax (peak plasma concentration)
Method: Six subjects (3 males and 3 females) participated in this PK study in which three increasing doses were tested. For the third dose, […] was replaced, due to pregnancy, by […] with similar CN1 activity. […] This means that half of the dose was administered as 5 mg/kg (weight-relative part) and the other half was an absolute dose based on the mean weight of the subjects of the third test day (341 mg; fixed part).
The day before a test day, subjects were asked to refrain from meat and fish. Upon arrival, a catheter was inserted in an antecubital vein and a fasted ethylenediaminetetraacetic acid (EDTA, 4 mL) and serum sample (3.5 mL, to determine CN1 activity) were collected. […] The following 2 h, every 30 min an EDTA blood sample was taken. Then after 3, 4, 5, 8 and 24 h, another sample was withdrawn. Urine was collected after 150 min, 5, 8 and 24 h. The subjects arrived in the lab and remained fasted until 2 h after ingesting the supplement. Subjects remained in the lab until the post 8 h blood sample, and returned the following morning for the post 24 h sample. Throughout the test day, food intake was standardized (lacto-ovo-vegetarian diet) ensuring minimal HCD intake for 24 h following supplement. Figure 5 gives a schematic overview of a test day.
Plasma samples were collected in pre-cooled (4 °C) EDTA tubes. Upon withdrawal, plasma was immediately deproteinized with 1:11 SSA, centrifuged (5 min, 16 000 g) and stored at − 20 °C.
as §1, §2, §3
CN1 activity was quantified by fluorometric determination of histidine following carnosine addition (based on Teufel et al., 2003).

[5] = compared to carnosine and anserine; cited from earlier work
[6] = set-up: method as in PMID 30449006; details: ref 10; cited from earlier work
[7] = 20 µM added to heparin plasma, 37 °C
[8] = 20 µM added to human heparin plasma, 37 °C, 6 subjects
[9] = both sexes, 20 µM added to human heparin plasma, 37 °C, 6 subjects, read-out: Half-life in plasma
[10] = in vitro human heparin plasma, factor ×, not significant

In the case of `Cn1cncc1C[C@H](NC(=O)CCN)C(=O)O` [anserine, β-alanyl-N(π)-methyl-L-histidine, reference compound], the “Affinity for PEPT2” value [1] is given as “high-affinity ligand”, the “Time after which undetectable in plasma” value (CN1 enzyme; [7]) is given as 15 min and the Half-life in plasma (CN1 enzyme; [8]) is given as 2 min. The half-life at 20 µM (CN1 enzyme; [9]) was 2.14 ± 0.58 min, the “Elimination constant ke: factor difference between carnosine and anserine” value (CN1 enzyme; [10]) was 1.8 and the Cmax ([2]; 4 mg/kg oral, human) was 0.54 µM. The Cmax ([2]; 10 mg/kg oral, human) was 1.1 µM, the “Plasma iAUC” value ([2]; 10 mg/kg oral, human) was 66.7 µM·min and the “Dose-dependent peak plasma concentrations after ingestion” value ([2]; human) was 0.5 to 3.1 µM. For the same compound, the “Average excreted percentage of the dose in urine (intact)” value ([2]; n = 7) was 6.3%, the “Substrate quality for the CN1 enzyme” value [3] was “intermediate” and the “Hydrolysis rate as % of carnosine's” value [3] was 30–50%.

For `Cn1cnc(CC(NC(=O)CCN)C(=O)O)c1` [balenine, β-alanyl-N(τ)-methyl-L-histidine], the Vd (clinical) was 126 L, the clearance (clinical) was 327 mL/min and the half-life (clinical) was 12 min. For the same compound, the “Pathological changes, morbidity and mortality” value (Sprague Dawley rats; female Sprague Dawley rats, acute increasing doses up to 2000 mg/kg, 2 week observation) was “No pathological changes were observed in any animal”, the Dose concluded safe (Sprague Dawley rats; female, Sprague Dawley, rat, in vivo, 2 weeks) was 2000 mg/kg and the “Time remaining elevated above LOQ in plasma” value (CN1 enzyme; 20 µM added to heparin plasma, 37 °C, LOQ 0.05 µM) was “up to 5 h”. The half-life at 20 µM (CN1 enzyme; [9]) was 34.9 ± 14.6 min, the half-life at 20 µM (CN1 enzyme; in vitro, read-out: Half-life in plasma with the highest CN1 activity) was 15 min and the “Half-life in plasma with the lowest CN1 activity relative to highest” value (CN1 enzyme; in vitro) was “threefold higher half-life”. The “Elimination rate constant relative to carnosine” value (CN1 enzyme; in vitro human heparin plasma) was 3.86%, the “Elimination constant ke: factor lower for balenine compared to carnosine” value (CN1 enzyme; in vitro human heparin plasma, factor ×) was 25.9 and the “Elimination constant ke: factor difference between balenine and anserine” value (CN1 enzyme; [10]) was 14.0. The “Urinary excretion as % of the ingested dose” value (shortened to “Urinary excretion as %”) ([4]; 1 mg/kg oral) was 27.3%, the Urinary balenine excretion ([4]; 1 mg/kg oral) was 19.3 ± 13.1 mg and the “Time plasma balenine remained significantly increased” value ([4]; 4 mg/kg oral) was “up to 3 h”. The “Urinary excretion as %” value ([4]; 4 mg/kg oral) was 29.7%, the Urinary balenine excretion ([4]; 4 mg/kg oral) was 82.0 ± 40.5 mg and the “Cmax of balenine relative to anserine at the same dose” value ([4]; 10 mg/kg oral) was 25.9 fold. For the same compound, the “Plasma iAUC of balenine relative to anserine” value ([4]; 10 mg/kg oral) was 136 fold, the “Time plasma balenine remained significantly increased” value ([4]; 10 mg/kg oral) was “up to 8 h” and the “Urinary excretion as %” value ([4]; 10 mg/kg oral) was 25.2%. The Cmax ([4]; 10 mg/kg oral (fragmented dose), human, n = 6) was 28 µM, the “Plasma iAUC” value ([4]; 10 mg/kg oral, human) was 8960 µM·min and the Urinary balenine excretion ([4]; 10 mg/kg oral) was 176 ± 95.9 mg. For the same compound, the “Average excreted percentage of the dose in urine (intact)” value ([4]; average over doses, n = 6) was 27.4%, the Cmax ([4]; both sexes, human, plasma, po, 1 mg/kg, 1 mg/kg oral, human, n = 6) was 1.6 ± 0.5 µM and the Cmax ([4]; both sexes, human, plasma, po, 4 mg/kg, 4 mg/kg oral, human, n = 6) was 7.1 ± 1.2 µM. The Cmax ([4]; both sexes, human, plasma, po, 10 mg/kg, 10 mg/kg oral (fragmented dose), human, n = 6) was 28.2 ± 7.4 µM, the “Cmax ratio 4 mg/kg vs 1 mg/kg” value ([4]; oral, human) was 4.4 times and the “Cmax ratio 10 mg/kg vs 1 mg/kg” value ([4]; oral, human) was 17.6 fold and 18 fold. For the same compound, the “Cmax ratio 10 mg/kg vs 4 mg/kg” value ([4]; oral, human) was 4 times, the “Urinary excretion after 1 mg/kg: times lower than after 4 mg/kg” value ([4]; oral, human) was 4 times and the “iAUC ratio 4 mg/kg vs 1 mg/kg” value ([4]; oral, human) was 3.8 times. For the same compound, the “iAUC ratio 10 mg/kg vs 1 mg/kg” value ([4]; oral, human) was 14.2 fold, the “iAUC ratio 10 mg/kg vs 4 mg/kg” value ([4]; oral, human) was 3.7 times and the “Antioxidant and iron-chelating capacity” value [5] was “higher antioxidant and iron-chelating capacity than carnosine and anserine”. For the same compound, the “Duration of zero-order input (dT1)” value (1 and 4 mg/kg doses, shorter for 10 mg/kg) was 1.13 h, the “Absorption constant (ka)” value (first-order absorption, fixed to last estimated value) was 3.48 h⁻¹ and the “Fraction excreted in urine (pu)” value (population estimate) was 0.56. The “Ability to quench reactive aldehydes such as HNE and acrolein” value [6] was “lacks the ability to quench reactive aldehydes”, the “Substrate quality for the CN1 enzyme” value [3] was “poor” and the “Rate of hydrolysis relative to carnosine” value ([3]; ref 15) was 8%. For the same compound, the “Rate of hydrolysis relative to carnosine” value ([3]; ref 16) was 3.81% and the “Hydrolysis rate as % of carnosine's” value [3] was 5–20%.

For `NCCC(=O)N[C@@H](Cc1cnc[nH]1)C(=O)O` [carnosine, β-alanyl-L-histidine, reference compound], the “Time after which undetectable in plasma” value (CN1 enzyme; [7]) was 5 min, the Half-life in plasma (CN1 enzyme; [8]) was 1 min and the half-life at 20 µM (CN1 enzyme; [9]) was 1.2 ± 0.36 min. The “Plasma concentration change after ingestion” value ([2]; 60 mg/kg bodyweight, only in people with low CN1 activity) was “small increase”, the “Plasma level after ingestion” value ([2]; highest dose of 20 mg/kg oral, human) was “barely measurable” and the “Substrate quality for the CN1 enzyme” value [3] was “good”.

For `NCCC(=O)NC(CO)Cc1cnc[nH]1` (stereo not drawn) [carnosinol, reference compound], the “Resistance to CN1” value ([3]; ref 29) is listed as “resistant to CN1”.
